In US20160039825A1 (BIOGEN MA INC., priority 2013, published 2016):
pIC50: −log10 of the molar value.

Target: T1, Human ATX protein (Homo sapiens, UniProt Q13822)
T1 construct: made in house
Assay: Autotaxin (ATX) assay, FRET with FS-3 substrate
Format: biochemical
Summary of the method: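 Hydrolysis of the FRET substrate FS-3 (2 μM final) unquenches fluorescein, read at excitation 485 nm and emission 538 nm after 2 h at room temperature, protected from light. Purified human ATX (1.0 μg/mL) and compound were first incubated for 30 min in pH 7.4 Tris/salt buffer containing 1 mg/mL fatty acid-free BSA.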

[1] = upper bound bins (no greater than 100, 250 or 500 nM), FS-3 2 μM, ATX 1.0 μg/mL

| Compound | pIC50 [1] | pIC50 (greater than 10 μM) |
| --- | --- | --- |
| CC(c1cc2n(n1)CCN(C(=O)OCc1cc(C(F)(F)F)cc(C(F)(F)F)c1)C2)N1C2CCC1CN(C(=O)OC(C)(C)C)C2 (stereo not shown) [Example 450] | ≥ 7.00 | – |
| CC(C)(C)OC(=O)N1CCC=C(c2cc3n(n2)CCN(C(=O)OCc2cc(C(F)(F)F)cc(C(F)(F)F)c2)C3)C1 [Example 498] | ≥ 7.00 | – |
| CC1CN(c2cc3n(n2)CCCN(C(=O)OCc2cc(C(F)(F)F)cc(C(F)(F)F)c2)C3)CC(C)N1 (stereo not shown) [Example 345] | ≥ 7.00 | – |
| O=C(OCc1cc(Cl)cc(C(F)(F)F)c1)N1CCn2c(nnc2C(F)(F)F)C1 [Example 135, 3-Chloro-5-(trifluoromethyl)benzyl 3-(trifluoromethyl)-5,6-dihydro-[1,2,4]triazolo[4,3-a]pyrazine-7(8H)-carboxylate] | ≥ 6.30 | – |
| COCc1cc2n(n1)CCCN(C(=O)OCc1cc(C(F)(F)F)cc(C(F)(F)F)c1)C2 [Example 285, 3,5-bis(trifluoromethyl)benzyl 2-(methoxymethyl)-7,8-dihydro-4H-pyrazolo[1,5-a][1,4]diazepine-5(6H)-carboxylate] | ≥ 7.00 | – |
| CN1CCN(C(=O)c2cc3n(n2)CCCN(C(=O)OCc2cc(Cl)cc(C(F)(F)F)c2)C3)C2(CC2)C1 [Example 180] | ≥ 7.00 | – |
| O=C(OCc1cc(C(F)(F)F)cc(C(F)(F)F)c1)N1CCCn2nc(CN[C@H]3CC[C@H](C(=O)O)CC3)cc2C1 [Example 289] | ≥ 6.60 | – |
| O=C(O)C1CN(C(=O)c2cc3n(n2)CCCN(C(=O)OCc2cc(C(F)(F)F)cc(C(F)(F)F)c2)C3)CCN1 (stereo not shown) [Example 192] | ≥ 7.00 | – |
| COC(=O)C1CN(C(=O)OCc2cc(C(F)(F)F)cc(C(F)(F)F)c2)Cc2ccnn2C1 (stereo not shown) [Example 406] | – | < 5.00 |
| O=C(OCc1cc(C(F)(F)F)cc(C(F)(F)F)c1)N1CCCn2nc(-c3nnn[nH]3)cc2C1 [Example 136, 3,5-Bis(trifluoromethyl)benzyl 2-(1H-tetrazol-5-yl)-7,8-dihydro-4H-pyrazolo[1,5-a][1,4]diazepine-5(6H)-carboxylate] | ≥ 7.00 | – |
| CC(c1cc2n(n1)CCCN(C(=O)OCc1cc(Cl)cc(Cl)c1)C2)N1CCCC1 (stereo not shown) [Example 454] | ≥ 6.30 | – |
| Cc1cc2n(n1)CCCN(C(=O)OCc1cc(C(F)(F)F)cc(C(F)(F)F)c1)C2 [Example 124, 3,5-Bis(trifluoromethyl)benzyl 2-methyl-7,8-dihydro-4H-pyrazolo[1,5-a][1,4]diazepine-5(6H)-carboxylate] | ≥ 7.00 | – |
| Cc1nc(-c2cc3n(n2)CCCN(C(=O)OCc2cc(C(F)(F)F)cc(C(F)(F)F)c2)C3)no1 [Example 392, 3,5-bis(Trifluoromethyl)benzyl 2-(5-methyl-1,2,4-oxadiazol-3-yl)-7,8-dihydro-4H-pyrazolo[1,5-a][1,4]diazepine-5(6H)-carboxylate] | ≥ 7.00 | – |
| O=C(OCc1cc(C(F)(F)F)cc(C(F)(F)F)c1)N1CCCn2nc(N3CCNCC3)cc2C1 [Example 339] | ≥ 6.60 | – |
| CC(N)c1cc2n(n1)CCCN(C(=O)OCc1cc(C(F)(F)F)cc(C(F)(F)F)c1)C2 (stereo not shown) [Example 147, 3,5-Bis(trifluoromethyl)benzyl 2-(1-aminoethyl)-7,8-dihydro-4H-pyrazolo[1,5-a][1,4]diazepine-5(6H)-carboxylate] | ≥ 6.30 | – |
| CN1CCN(C(=O)c2cc3n(n2)CCCN(C(=O)OCc2cc(Cl)cc(C(F)(F)F)c2)C3)CC1 [Example 216] | ≥ 7.00 | – |
| O=C(O)c1cc2n(n1)CCCN(C(=O)CCc1cc(Cl)cc(Cl)c1)C2 [Example 83, 5-(3-(3,5-Dichlorophenyl)propanoyl)-5,6,7,8-tetrahydro-4H-pyrazolo[1,5-a][1,4]diazepine-2-carboxylic acid] | ≥ 7.00 | – |
| CN1CCN(C(=O)c2cc3n(n2)CCCN(C(=O)OCc2cc(C(F)(F)F)cc(C(F)(F)F)c2)C3)CC1 [Example 215] | ≥ 7.00 | – |
| CN1CC2CCC1CN2C(=O)c1cc2n(n1)CCCN(C(=O)OCc1cc(Cl)cc(C(F)(F)F)c1)C2 (stereo not shown) [Example 159, 3-chloro-5-(trifluoromethyl)benzyl 2-(5-methyl-2,5-diazabicyclo[2.2.2]octane-2-carbonyl)-7,8-dihydro-4H-pyrazolo[1,5-a][1,4]diazepine-5(6H)-carboxylate] | ≥ 7.00 | – |
| O=C(OCc1cc(Cl)cc(C(F)(F)F)c1)N1CCCn2nc(C3CN4CCC[C@H]4CO3)cc2C1 (mixture of isomers) [Example 251, 3-Chloro-5-(trifluoromethyl)benzyl 2-((8aS)-hexahydro-1H-pyrrolo[2,1-c][1,4]oxazin-3-yl)-7,8-dihydro-4H-pyrazolo[1,5-a][1,4]diazepine-5(6H)-carboxylate] | ≥ 7.00 | – |
| C[C@H]1CNC[C@H](C)N1C(=O)c1cc2n(n1)CCCN(C(=O)OCc1cc(Cl)cc(C(F)(F)F)c1)C2 [Example 160] | ≥ 7.00 | – |
| CCN1CCN(C(=O)c2cc3n(n2)CCCN(C(=O)OCc2cc(Cl)cc(C(F)(F)F)c2)C3)C(C)(C)C1 [Example 172] | ≥ 7.00 | – |
| O=C(OCc1cc(Cl)cc(C(F)(F)F)c1)N1CCCn2nc(C(=O)N3CCNCC34CCC4)cc2C1 [Example 175] | ≥ 7.00 | – |

| Compound | pIC50 [1] | pIC50 (greater than 10 μM) |
| --- | --- | --- |
| CC(C)N1CCN(c2cc3n(n2)CCCN(C(=O)OCc2cc(C(F)(F)F)cc(C(F)(F)F)c2)C3)CC1 [Example 356] | ≥ 7.00 | – |
| CC1(C)COCCN1CC(=O)c1cc2n(n1)CCN(C(=O)OCc1cc(C(F)(F)F)cc(C(F)(F)F)c1)C2 [Example 260] | ≥ 7.00 | – |
| O=C(O)C1CC2CCCC(C1)N2C(=O)c1cc2n(n1)CCCN(C(=O)OCc1ccc(Cl)cc1)C2 (stereo not shown) [Example 59, 9-(5-((4-Chlorobenzyloxy)carbonyl)-5,6,7,8-tetrahydro-4H-pyrazolo[1,5-a][1,4]diazepine-2-carbonyl)-9-aza-bicyclo[3.3.1]nonane-3-carboxylic acid] | ≥ 7.00 | – |
| CC1CN(C(=O)OC(C)(C)C)CC(C)N1C(=O)c1cc2n(n1)CCN(C(=O)OCc1cc(C(F)(F)F)cc(C(F)(F)F)c1)C2 (stereo not shown) [Example 476] | ≥ 7.00 | – |
| O=C(NC1CCOCC1)c1cc2n(n1)CCCN(C(=O)OCc1cc(C(F)(F)F)cc(C(F)(F)F)c1)C2 [Example 506] | ≥ 7.00 | – |
| CCOC(=O)C1CN(C(=O)OCc2cc(C(F)(F)F)cc(C(F)(F)F)c2)Cc2ccnn21 (stereo not shown) [Example 405] | – | < 5.00 |
| O=C(OCc1cc(C(F)(F)F)cc(C(F)(F)F)c1)N1CCCn2nc(C3=CC4CCC(C3)N4)cc2C1 (stereo not shown) [Example 376] | ≥ 7.00 | – |
| CC1CN(CC(=O)c2cc3n(n2)CCCN(C(=O)OCc2cc(Cl)cc(C(F)(F)F)c2)C3)CC(C)O1 (stereo not shown) [Example 269] | ≥ 7.00 | – |
| CN(C)S(=O)(=O)c1cc2n(n1)CCCN(C(=O)OCc1cc(C(F)(F)F)cc(C(F)(F)F)c1)C2 [Example 302, 3,5-bis(trifluoromethyl)benzyl 2-(N,N-dimethylsulfamoyl)-7,8-dihydro-4H-pyrazolo[1,5-a][1,4]diazepine-5(6H)-carboxylate] | ≥ 7.00 | – |
| O=C(OCc1cc(C(F)(F)F)cc(C(F)(F)F)c1)N1CCCn2nc(NC3CCCCNC3)cc2C1 (stereo not shown) [Example 326] | ≥ 7.00 | – |
| CC(c1cc2n(n1)CCCN(C(=O)OCc1cc(C(F)(F)F)cc(C(F)(F)F)c1)C2)N1CCCCC1 (stereo not shown) [Example 148, 3,5-Bis(trifluoromethyl)benzyl 2-(1-(piperidin-1-yl)ethyl)-7,8-dihydro-4H-pyrazolo[1,5-a][1,4]diazepine-5(6H)-carboxylate] | ≥ 7.00 | – |
| O=C(OCc1cc(Cl)cc(C(F)(F)F)c1)N1CCCn2nc(C(=O)N3CCN4CCC[C@H]4C3)cc2C1 [Example 211] | ≥ 7.00 | – |
| O=C(OCc1cc(Cl)cc(C(F)(F)F)c1)N1CCCn2nc(C(=O)N3CC4CCNC4C3)cc2C1 (stereo not shown) [Example 167] | ≥ 7.00 | – |
| CN1CCN(C(=O)c2cc3n(n2)CCCN(C(=O)OCc2cc(Cl)cc(C(F)(F)F)c2)C3)C(C)(C)C1 [Example 176, 3-chloro-5-(trifluoromethyl)benzyl 2-(2,2,4-trimethylpiperazine-1-carbonyl)-7,8-dihydro-4H-pyrazolo[1,5-a][1,4]diazepine-5(6H)-carboxylate] | ≥ 7.00 | – |
| CCC1CNCCN1C(=O)c1cc2n(n1)CCCN(C(=O)OCc1cc(Cl)cc(C(F)(F)F)c1)C2 (stereo not shown) [Example 205] | ≥ 7.00 | – |
| O=C(OCc1cc(C(F)(F)F)cc(C(F)(F)F)c1)N1CCCn2nc(C3CCNC3)cc2C1 (stereo not shown) [Example 384] | ≥ 6.60 | – |
| O=C(OCc1cc(Cl)cc(C(F)(F)F)c1)N1CCCn2nc(C(=O)N3CC4CCC(C3)N4)cc2C1 [Example 209] | ≥ 7.00 | – |
| CC1CNCC(C)N1C(=O)c1cc2n(n1)CCCN(C(=O)OCc1cc(C(F)(F)F)cc(C(F)(F)F)c1)C2 (stereo not shown) [Example 249] | ≥ 7.00 | – |
| NC(C(=O)O)c1cc2n(n1)CCCN(C(=O)OCc1cc(C(F)(F)F)cc(C(F)(F)F)c1)C2 (stereo not shown) [Example 390, 2-Amino-2-(5-(((3,5-bis(trifluoromethyl)benzyl)oxy)carbonyl)-5,6,7,8-tetrahydro-4H-pyrazolo[1,5-a][1,4]diazepin-2-yl)acetic acid] | ≥ 7.00 | – |
| O=C(O)C1CC2CCCC(C1)N2C(=O)c1cc2n(n1)CCN(C(=O)OCc1cccc(Cl)c1)C2 (stereo not shown) [Example 42, 9-(5-(((3-chlorobenzyl)oxy)carbonyl)-4,5,6,7-tetrahydropyrazolo[1,5-a]pyrazine-2-carbonyl)-9-azabicyclo[3.3.1]nonane-3-carboxylic acid] | ≥ 6.30 | – |
| O=C(OCc1cc(Cl)cc(Cl)c1)N1CCCn2cncc2C1 [Example 133, 3,5-Dichlorobenzyl 6,7-dihydro-5H-imidazo[1,5-a][1,4]diazepine-8(9H)-carboxylate] | ≥ 7.00 | – |
| CC(C)(C)OC(=O)N1CCC(c2cc3n(n2)CCN(C(=O)OCc2cc(C(F)(F)F)cc(C(F)(F)F)c2)C3)CC1 [Example 398, 3,5-bis(trifluoromethyl)benzyl 2-(1-(tert-butoxycarbonyl)piperidin-4-yl)-6,7-dihydropyrazolo[1,5-a]pyrazine-5(4H)-carboxylate] | ≥ 7.00 | – |
| O=C(OCc1cc(Cl)cc(C(F)(F)F)c1)N1CCCn2nc(CNC3=NCCS3)cc2C1 [Example 153, 3-chloro-5-(trifluoromethyl)benzyl 2-(((4,5-dihydrothiazol-2-yl)amino)methyl)-7,8-dihydro-4H-pyrazolo[1,5-a][1,4]diazepine-5(6H)-carboxylate] | ≥ 7.00 | – |
